Measurements reported in patent US8507477B2, “3- and 6-quinolines with N-attached heterocyclic CGRP receptor antagonists” (Merck, Sharp & Dohme, Corp., priority 2008, dated 2013).

biological target: recombinant human CL receptor/RAMP1 (Homo sapiens (Human), UniProt O60894+Q16602); experiment: Recombinant receptor binding assay (125I-hCGRP displacement, membranes of HEK 293 cells); settings: membranes of HEK 293 cells expressing human CL receptor/RAMP1
Experimental: RECOMBINANT RECEPTOR: Human CL receptor (Genbank accession number L76380) was subcloned into the expression vector pIREShyg2 (BD Biosciences Clontech) as a 5′NheI and 3′PmeI fragment. Human RAMP1 (Genbank accession number AJ001014) was subcloned into the expression vector pIRESpuro2 (BD Biosciences Clontech) as a 5′NheI and 3′NotI fragment. HEK 293 cells (human embryonic kidney cells; ATCC #CRL-1573) were cultured in DMEM with 4.5 g/L glucose, 1 mM sodium pyruvate and 2 mM glutamine supplemented with 10% fetal bovine serum (FBS), 100 units/mL penicillin and 100 μg/mL streptomycin, and maintained at 37° C. and 95% humidity. Cells were subcultured by treatment with 0.25% trypsin with 0.1% EDTA in HBSS. Stable cell line generation was accomplished by co-transfecting 10 μg of DNA with 30 μg Lipofectamine 2000 (Invitrogen) in 75 cm^2 flasks. CL receptor and RAMP1 expression constructs were co-transfected in equal amounts. Twenty-four hours after transfection the cells were diluted and selective medium (growth medium+300 μg/mL hygromycin and 1 μg/mL puromycin) was added the following day. A clonal cell line was generated by single cell deposition utilizing a FACS Vantage SE (Becton Dickinson). Growth medium was adjusted to 150 μg/mL hygromycin and 0.5 μg/mL puromycin for cell propagation.
RECOMBINANT RECEPTOR BINDING ASSAY: Cells expressing recombinant human CL receptor/RAMP1 were washed with PBS and harvested in harvest buffer containing 50 mM HEPES, 1 mM EDTA and Complete protease inhibitors (Roche). The cell suspension was disrupted with a laboratory homogenizer and centrifuged at 48,000 g to isolate membranes. The pellets were resuspended in harvest buffer plus 250 mM sucrose and stored at −70° C. For binding assays, 20 μg of membranes were incubated in 1 ml binding buffer (10 mM HEPES, pH 7.4, 5 mM MgCl2, and 0.2% BSA) for 3 hours at room temperature containing […] ^125I-hCGRP (GE Healthcare) and antagonist. The assay was terminated by filtration through 96-well GFB glass fiber filter plates (PerkinElmer) that had been blocked with 0.05% polyethyleneimine. The filters were washed 3 times with ice-cold assay buffer (10 mM HEPES, pH 7.4 and 5 mM MgCl2). Scintillation fluid was added and the plates were counted on a Topcount (Packard). Non-specific binding was determined and the data analysis was carried out with the apparent dissociation constant (Ki) determined by using a non-linear least squares fitting the bound CPM data to the equation below:
[formula] Where Y is observed CPM bound, Ymax is total bound counts, Ymin is non specific bound counts, (Ymax−Ymin) is specific bound counts, % Imax is the maximum percent inhibition, % I min is the minimum percent inhibition, radiolabel is the probe, and the Kd is the apparent dissociation constant for the radioligand for the receptor as determined by Hot saturation experiments.

recombinant human CL receptor/RAMP1, sequence (Q16602 23-461): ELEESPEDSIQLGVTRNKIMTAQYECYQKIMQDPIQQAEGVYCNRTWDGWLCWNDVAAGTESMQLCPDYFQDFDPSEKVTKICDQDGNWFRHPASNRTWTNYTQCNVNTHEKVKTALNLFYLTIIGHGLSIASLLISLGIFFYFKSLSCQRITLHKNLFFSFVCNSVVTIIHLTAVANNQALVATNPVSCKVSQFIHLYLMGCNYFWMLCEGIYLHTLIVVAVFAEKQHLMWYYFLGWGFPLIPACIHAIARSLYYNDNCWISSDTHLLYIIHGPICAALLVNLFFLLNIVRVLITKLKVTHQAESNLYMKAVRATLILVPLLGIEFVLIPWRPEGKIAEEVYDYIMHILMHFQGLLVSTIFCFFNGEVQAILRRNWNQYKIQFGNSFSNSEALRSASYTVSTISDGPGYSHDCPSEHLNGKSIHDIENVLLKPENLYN
recombinant human CL receptor/RAMP1, sequence (O60894 27-148): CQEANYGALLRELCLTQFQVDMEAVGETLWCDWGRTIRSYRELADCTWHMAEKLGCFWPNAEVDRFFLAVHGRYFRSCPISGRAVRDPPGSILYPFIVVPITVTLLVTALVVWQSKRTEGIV

| SMILES | Ki [nM] |
| --- | --- |
| CC(C)N1C(=O)N(Cc2cnc3cc4c(cc3c2)C[C@@]2(C4)C(=O)Nc3ncccc32)C2(CCCCCC2)C1=O [Example 6] | 0.34 |
| CN1C[C@@](C)(c2cc(F)cc(F)c2)N(Cc2cnc3cc4c(cc3c2)C[C@@]2(C4)C(=O)Nc3ncccc32)C(=O)C12CCCC2 [Example 13] | 0.062 |
| O=C1N(Cc2cnc3cc4c(cc3c2)C[C@@]2(C4)C(=O)Nc3ncccc32)[C@H](c2cc(F)cc(F)c2)CCNC12CCCC2 [Example 15] | 0.49 |
| O=C1N(Cc2ccc3nc4c(cc3c2)C[C@@]2(C4)C(=O)Nc3ncccc32)[C@H](c2cc(F)cc(F)c2)CCNC12CCCC2 [Example 16] | 0.89 |
| O=C1NCCN(Cc2cnc3cc4c(cc3c2)C[C@@]2(C4)C(=O)Nc3ncccc32)C1c1ccc(F)cc1 (stereo partly shown) [Example 17] | 57 |

The next lines start with the values.

| Ki [nM] | SMILES |
| --- | --- |
| 0.057 | CC(C)N1C(=O)N(Cc2cnc3cc4c(cc3c2)C[C@@]2(C4)C(=O)Nc3ncccc32)C2(CCCc3ccccc32)C1=O (stereo partly shown) [Example 5] |
| 0.14 | O=C1N(Cc2cnc3cc4c(cc3c2)C[C@@]2(C4)C(=O)Nc3ncccc32)[C@H](c2cc(F)cc(F)c2)CNC12CCCC2 [Example 8] |
| 0.77 | O=C1N(Cc2cnc3cc4c(cc3c2)C[C@@]2(C4)C(=O)Nc3ncccc32)[C@H](c2cc(F)cc(F)c2)CCC12CCCC2 [Example 9] |
| 1.3 | O=C1N(Cc2cnc3cc4c(cc3c2)C[C@@]2(C4)C(=O)Nc3ncccc32)C(c2ccccc2Cl)=NC12CCCC2 [Example 10] |
| 0.28 | CC(C)N1C(=O)N(Cc2cnc3cc4c(cc3c2)C[C@@]2(C4)C(=O)Nc3ncccc32)C(C)(c2ccccc2)C1=O (stereo partly shown) [Example 12] |
